Reference: patent publication US6797824B2, “Certain 4-aminomethyl-2-substituted imidazole derivatives and 2-aminomethyl-4-substituted imidazole derivatives; new classes of dopamine receptor subtype specific ligands” (Neurogen Corporation, priority 1990, dated 2004)
Structures can show the parent of a compound that is named as a salt.

What was measured:
[1] = target: T1, dopamine D4 receptors in rat hippocampus (Rattus norvegicus, UniProt P30729); assay: Binding to D4 receptors in rat hippocampus
T1 construct: from tissue; host or cells: rat hippocampus (from the head of the results)
T1 sequence (P30729 1-387): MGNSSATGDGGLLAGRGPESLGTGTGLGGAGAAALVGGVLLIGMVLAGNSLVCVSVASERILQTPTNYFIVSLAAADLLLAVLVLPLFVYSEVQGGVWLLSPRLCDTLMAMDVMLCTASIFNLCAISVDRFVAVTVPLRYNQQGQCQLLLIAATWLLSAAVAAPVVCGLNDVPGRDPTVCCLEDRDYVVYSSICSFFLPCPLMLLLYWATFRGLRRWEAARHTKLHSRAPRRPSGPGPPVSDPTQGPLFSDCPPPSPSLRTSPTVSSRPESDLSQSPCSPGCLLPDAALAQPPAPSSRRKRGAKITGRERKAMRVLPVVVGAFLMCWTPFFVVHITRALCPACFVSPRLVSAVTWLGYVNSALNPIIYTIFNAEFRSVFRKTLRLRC

[2] = target: T2, human dopamine D4 receptor subtype (Homo sapiens, UniProt P21917); assay: D4 receptor binding, displacement of [3H]YM-09151-2
T2 construct: expressed in transfected cells
T2 sequence (P21917 1-419): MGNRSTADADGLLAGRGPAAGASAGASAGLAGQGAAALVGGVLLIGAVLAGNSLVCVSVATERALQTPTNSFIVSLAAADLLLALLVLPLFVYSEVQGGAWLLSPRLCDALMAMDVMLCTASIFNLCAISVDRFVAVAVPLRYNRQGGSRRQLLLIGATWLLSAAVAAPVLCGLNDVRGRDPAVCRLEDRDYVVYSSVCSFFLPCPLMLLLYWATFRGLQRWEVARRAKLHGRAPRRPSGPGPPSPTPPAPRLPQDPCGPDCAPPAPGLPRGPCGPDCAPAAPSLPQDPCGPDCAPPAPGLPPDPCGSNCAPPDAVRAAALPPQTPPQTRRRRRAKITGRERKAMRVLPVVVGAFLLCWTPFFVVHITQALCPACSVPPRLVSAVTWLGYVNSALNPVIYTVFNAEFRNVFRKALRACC
Method: Assay for D4 Receptor Binding Activity
Clonal cell lines expressing the human dopamine D4 receptor subtype were harvested in PBS and the cells centrifuged and the pellets stored at −80° C. until used in the binding assay. […] The homogenate is centrifuged at 48000×g for 10 minutes at 4° C. The resulting pellet is resuspended in fresh buffer and centrifuged again. After resuspension of the pellet in fresh buffer at […] aliquot is removed for protein determination. […] Incubations were carried out for 60 minutes at 25° C. in the presence of 0.1 nM [^3H] […] Non-specific binding was determined with 1 mM spiperone and radioactivity determined by counting in an LKB beta counter. Binding parameters were determined by non-linear least squares regression analysis, from which the inhibition constant (ki) could be calculated for each test compound.

[3] = target: T3, dopamine D4 receptors in human hippocampus (Homo sapiens, UniProt P21917); assay: Binding to D4 receptors in human hippocampus
T3 construct: from tissue; host or cells: human hippocampus (from the head of the results)
T3 sequence (P21917 1-419): T2 sequence (P21917 1-419)

[4] = test system: male Sprague Dawley rats (learning and memory); assay: Step-down passive avoidance task; format: in vivo, rat
Method: Non-naive male Sprague Dawley rats (SASCO St. Louis) weighing between 2000-300 grams, were housed in groups of three in a temperature and humidity controlled vivarium having a 12 hour light/dark cycle. Animals had ad lib access to food and water.
Both drugs were administered intravenously 5 minutes prior to training in both learning tasks.
Step-Down Passive Avoidance: A step-down passive avoidance platform 4 (cm)×7 (cm) was placed in the center of an electrified gris floor, which was contained within a large (45×45×50 cm) white translucent plexiglas enclosure having a closable lid. The bars of the grip were spaced 1.5 cm apart and were wired to a BRS-LVE shock generator/scrambler which was set to deliver a 2 mA 6 second shock. Four passive avoidance boxes were automated by customer software (Labview) and commercial interface modules (National Instruments) connected to a computer. The timing and delivery of the shock as well as the latency to steo down and the number of trials taken to reach criterion during raining was under the control of the computer. All testing was done in the presence of 62 db white noise. […]
Retention Testing: Testing was conduced approximately 24 hours after training, Drug-free animals were placed on the platform in the box in which they were trained and the latency to step down onto the unshocked floor was recorded for one trial. […]

Structure (SMILES)	melting point [°C]	binding to dopamine D4 receptors, functional type [1]	binding to dopamine D4 receptors, functional type [3]	further results
c1ccc(-c2ncc(CN3CCN(c4ccccc4)CC3)[nH]2)cc1 [Compound 45, 2-Phenyl-4(5)-[(4-phenyl-piperazin-1-yl)methyl]-imidazole]		antagonists binding to dopamine D4 receptors	antagonists binding to dopamine D4 receptors	Ki [2]: 5 nM
c1ccc(-c2ncc(CN3CCN(c4ccccn4)CC3)[nH]2)cc1 [Compound 24, 2-Phenyl-4(5)-[(4-(2-pyridyl)-piperazin-1-yl)-methyl]-imidazole dihydrochloride]		antagonists binding to dopamine D4 receptors	antagonists binding to dopamine D4 receptors	
c1ccc(-c2ncc(CN3CCN(c4ncccn4)CC3)[nH]2)cc1 [Compound 23, 2-Phenyl-4(5)-[(4-(2-pyrimidinyl)-piperazin-1-yl)methyl]-imidazole dihydrochloride]		antagonists binding to dopamine D4 receptors	antagonists binding to dopamine D4 receptors	Ki [2]: 2.7 nM; passive avoidance retention: time on platform during retest vs vehicle ([4]; 0.25 mg/kg i.v., retest about 24 h after training): significantly longer time; passive avoidance acquisition vs vehicle group ([4]; 0.03-1.0 mg/kg i.v. 5 min prior to training): no significant differences
COc1cccc(-c2ncc(CN3CCC(c4ccccc4)CC3)[nH]2)c1 (as salt: hydrochloride) [Compound 50, 2-(3-Methoxyphenyl)-4(5)[(4-phenyl-piperidin-1-yl)-methyl]-imidazole dihydrochloride]	114 to 117			

Second part, led by results:

melting point [°C]	Structure (SMILES)	binding to dopamine D4 receptors, functional type [1]	binding to dopamine D4 receptors, functional type [3]	further results
179 to 181	Clc1ccc(N2CCN(Cc3cnc(-c4ccccc4)[nH]3)CC2)cc1Cl [Compound 61, 2-Phenyl-4(5)-[(4(3,4-dichlorophenyl)-piperazin-1yl-)methyl]imidazole]			
210 to 213	c1cnc(N2CCN(Cc3cnc(C4CCCCC4)[nH]3)CC2)nc1 [Compound 128, 2-cyclohexyl-4(5)-[(4-(2-pyrimidinyl)-piperazin-1-yl)-methyl]-imidazole]			
188 to 190	Fc1ccnc(N2CCN(Cc3c[nH]c(-c4ccccc4)n3)CC2)n1 (as salt: hydrochloride) [Compound 58, 2-Phenyl-4(5)-[(4(4-fluoro-2-pyrimidinyl)-piperazin-1yl)-methyl]imidazole dihydrochloride]			
